Test results from US5129951A, “Aromatic aldehydes and alcohols as potato tuber sprout inhibitors” (priority 1991, dated 1992).

Assays:
[1] = system: potato tubers; experiment: Tuber sprouting 14 days after direct application of aromatic compounds (Example 3); format: in vivo, Solanum tuberosum L. cv `Norchip`; details: for % Eyes Sprouted: 25° C., control 98, LSD (0.05) 14
Protocol: (§2) Because the aromatic aldehydes and alcohols may be applied to the stored potatoes by methods other than as volatiles, direct application of the compounds either as pure chemicals or as emulsions was also studied. Emulsions were prepared as either 1% or 10% (v/v) of each compound in distilled water containing 0.05% (v/v) Tween 80 as an emulsifier (control tubers were treated with Tween 80 only). Tubers were treated by dipping each tuber in the test emulsion for 10 seconds, whereupon excess liquid was allowed to drain off. Pure compounds in liquid phase were applied with an atomizing sprayer, ensuring that the entire tuber surface was coated. Each tuber was sprayed with approximately 0.1-0.2 ml of each compound tested. Six tubers per treatment were used, with two replicates, and all experiments were repeated once.

[2] = system: potato tubers; experiment: Tuber texture and quality 14 days after direct application of aromatic compounds (Example 3); details: for Tuber Texture: control SS
Protocol: as §2

[3] = cited from earlier work; for Temperature at Which Vapor Pressure Equals 1 mm Hg: vapor pressure 1 mm Hg
[4] = system: fungi; experiment: Fungal growth 14 days after direct application of aromatic compounds (Example 3); format: in vivo; details: control +; further: key: -: no fungi visible; +: = some fungi; ++: heavy fungal growth
Protocol: as §2

[5] = system: potato tubers; experiment: Tuber sprouting after removal from exposure to volatilized aromatics for 1, 2, 4, 7 or 10 days (Example 2); format: in vivo, Solanum tuberosum L. cv `Norchip`; details: exposure for 10 days, 75 days after removal
[6] = system: fungi; experiment: Fungal growth on tubers exposed to compounds in headspace gas for 7 days (Example 1); format: in vivo; on Fungal growth: key: -: no fungi visible; +: = some fungi; ++: heavy fungal growth
From the text: (control flasks lacked any compounds).

[7] = system: potato tubers; experiment: Tuber sprouting after removal from exposure to volatilized aromatics for 1, 2, 4, 7 or 10 days (Example 2); format: in vivo, Solanum tuberosum L. cv `Norchip`; details: 14 days after removal; for % Eyes Sprouted: 25° C., LSD (0.05) 24
Protocol: (§1) Each treatment consisted of placing the tubers in sealed 9.2 l flasks containing excess levels of the treatment compounds at 25° C. as in Example 1. Three tubers were then removed from each treatment after 1, 2, 4, 7, and 10 days, and placed in flasks containing fresh humidified air (free of any additional volatilized compounds) at 25° C. Control tubers were placed in sealed flasks lacking any added compounds and three were removed after 1 and 10 days. Fourteen days after removal from the sealed flasks containing treatment compounds, all tubers were examined for percentage of eyes sprouted, tuber texture, and fungal growth. Each treatment was replicated once and each experiment was repeated once.

[8] = system: potato tubers; experiment: Tuber texture/quality after exposure to compounds in headspace gas for 7 days (Example 1); details: 7 days in saturated headspace gas, 25° C.
[9] = Theoretical saturated headspace concentration calculated from known vapor pressures; format: physicochemical; details: calculated from known vapor pressures by Ideal Gas Law
Protocol: Because these compounds were difficult to quantitate by gas chromatography at the concentration levels in saturated headspaces, theoretical saturated concentrations were calculated by converting known vapor pressures of each compound at 25° C. to molar concentrations using the Ideal Gas Law, […], where n/V is the molar concentration, P is the partial pressure (atm), R is the Ideal Gas constant (0.0821 l atm/mol ° K.), and T is the temperature (° K.).

[10] = system: fungi; experiment: Fungal growth on tubers after removal from exposure to volatilized aromatics (Example 2); format: in vivo
Protocol: as §1

[11] = system: potato tubers; experiment: Sprout inhibition of tubers exposed to compounds in headspace gas for 7 days (Example 1); format: in vivo, Solanum tuberosum L. cv `Norchip`; details: 7 days in saturated headspace gas, 25° C.; for % Eyes Sprouted: dark, control 100, LSD (0.05) 12
[12] = system: potato tubers; experiment: Tuber texture after removal from exposure to volatilized aromatics (Example 2); format: in vivo, Solanum tuberosum L. cv `Norchip`; details: 14 days after removal from exposure
Protocol: as §1

[13] = system: potato; details: Aliaga and Feldheim (1985); cited from earlier work
[14] = 7 days in saturated headspace gas, 25° C.
[15] = 7 days in saturated headspace gas, 25° C., control ++
[16] = 1 day exposure, 14 days after removal, control +
[17] = 4 days exposure, 14 days after removal
[18] = 7 days exposure, 14 days after removal
[19] = 10 days exposure, 14 days after removal, control +
[20] = 14 days after removal from exposure
[21] = 2 days exposure, 14 days after removal

Compound	% Eyes Sprouted ([1]; 1% emulsion (dip))	% Eyes Sprouted ([1]; 10% emulsion (dip))	% Eyes Sprouted ([1]; 100% (pure, sprayed))	Tuber Texture ([2]; 10% emulsion (dip))	Tuber Texture ([2]; 100% (pure, sprayed))	Temperature at Which Vapor Pressure Equals 1 mm Hg [3]	Solubility in Water at 25° C. [3]	Fungal Growth ([4]; 1% emulsion (dip))	Fungal Growth ([4]; 100% (pure, sprayed))	effect on fungal growth [6, 14]	Fungal Growth [6, 15]	% Eyes Sprouted ([7]; 1 day exposure, control 96)	% Eyes Sprouted ([7]; 2 days exposure)	% Eyes Sprouted ([7]; 4 days exposure)	% Eyes Sprouted ([7]; 7 days exposure)	tuber condition [8]	Concentration of Saturated Headspace at 25° C. [9]	effect on tuber sprouting [11]	% Eyes Sprouted [11]	effectiveness of main oil components in inhibiting sprouting, weight loss and rot [13]	also measured
O=CC=Cc1ccccc1 [Cinnamaldehyde]	0%	0%	0%	S,N	S,N	76.1 °C	sl. soluble	-	-	prevented any visible fungal growth	-	62%	80%	64%	24%	firm and appeared healthy	1900 nM	completely inhibited sprouting	0%		inhibition of sprouting ([1]; 1% emulsion): completely inhibited sprouting without damaging the potato tubers; tuber condition ([2]; 1% emulsion): remained hard, with no necrosis or surface pitting; sprouting [5]: remained unsprouted; % Eyes Sprouted ([7]; 10 days exposure, control 100): 0%; inhibition of tuber sprouting ([7]; exposure for 7 or fewer days): did not completely inhibit sprouting; inhibition of tuber sprouting ([7]; exposure for 10 days): completely inhibited sprouting; Fungal Growth [10, 16]: -; Fungal Growth [10, 17]: -; Fungal Growth [10, 18]: -; Fungal Growth [10, 19]: -; Fungal Growth [10, 20]: a small amount of mycelia was detected in a bruised area
CC(C)c1ccc(C=O)cc1 [Cuminaldehyde]	5%	43%	0%	SS,N	SS,N	58.0 °C	insoluble	-	-	prevented any visible fungal growth	-	63%	68%	49%	8%	firm and appeared healthy	6400 nM	completely inhibited sprouting	0%		sprouting [5]: remained unsprouted; % Eyes Sprouted ([7]; 10 days exposure, control 100): 0%; inhibition of tuber sprouting ([7]; exposure for 7 or fewer days): did not completely inhibit sprouting; inhibition of tuber sprouting ([7]; exposure for 10 days): completely inhibited sprouting; Fungal Growth [10, 16]: -; Fungal Growth [10, 21]: -; Fungal Growth [10, 17]: -; Fungal Growth [10, 18]: -; Fungal Growth [10, 19]: -
CCOC(=O)C=Cc1ccccc1 [Ethyl cinnamate]						87.6 °C	insoluble				+						700 nM	suppressed sprouting to some degree	64%		
C=CCc1ccc(O)c(OC)c1 [Eugenol, reference compound]	32%	7%	0%	SS,N	S,N	78.4 °C		++	-	especially heavy growth	++					remained firm	1600 nM	no significant effect on tuber sprouting	94%		
O=CCCc1ccccc1 [Hydrocinnamaldehyde, 3-phenyl-propanal]	25%	0%	0%	S	S,N		sl. soluble	-	-	prevented any visible fungal growth	-	90%	79%	66%	51%	firm and appeared healthy		completely inhibited sprouting	0%		Fungal Growth ([4]; 10% emulsion (dip)): ++; % Eyes Sprouted ([7]; 10 days exposure, control 100): 24%; Fungal Growth [10, 16]: -; Fungal Growth [10, 21]: -; Fungal Growth [10, 17]: -; Fungal Growth [10, 18]: -; Fungal Growth [10, 19]: -
COC(=O)C=Cc1ccccc1 [Methyl cinnamate]						77.4 °C	insoluble			suppressed fungal growth	-						1600 nM	suppressed sprouting to some degree	16%		
Oc1ccccc1 [Phenol]						40.1 °C										blackened, soft to the touch, and displayed evident tissue necrosis	21000 nM	completely inhibited sprouting	0%		Fungal Growth ([6]; in vivo): -; effect on fungal growth ([6]; in vivo): prevented any visible fungal growth; Tuber Texture ([8]; control SS): S,N
O=Cc1ccccc1O [Salicylaldehyde]	0%	0%	0%	S,N	S,N			++	-	prevented any visible fungal growth	-	0%	0%	0%	0%	firm and appeared healthy	36000 nM	completely inhibited sprouting	0%		tuber firmness [12]: firm; Tuber Texture ([2]; 1% emulsion (dip)): S,N; Fungal Growth ([4]; 10% emulsion (dip)): -; sprouting [5]: remained unsprouted; % Eyes Sprouted ([7]; 10 days exposure, control 100): 0%; inhibition of tuber sprouting ([7]; after 1 or more days of treatment): completely inhibited tuber sprouting; Fungal Growth [10, 16]: -; Fungal Growth [10, 21]: -; Fungal Growth [10, 17]: -; Fungal Growth [10, 18]: -; Fungal Growth [10, 19]: -; Fungal Growth [10, 20]: lacked visible fungal growth
C=C(C)C1CC=C(C)CC1 (stereo not shown) [limonene]																				effective	
CC1CCC(C(C)C)C(=O)C1 (stereo not shown) [menthone/isomenthone]																				effective	
CC(C)=C1CC[C@@H](C)CC1=O [pulegone]																				effective	
CC1=CCC2CC1C2(C)C (stereo not drawn) [α-pinene]																				effective	
C=C1CCC2CC1C2(C)C (stereo not drawn) [β-pinene]																				effective	
